Paper PMC5750218, “Protein-inspired antibiotics active against vancomycin- and daptomycin-resistant bacteria” (Nature Communications, 2018)
Values after ≈ are worked out from the molar mass of the structure shown. Values joined by “and” are separate entries in the source; they are usually repeats but may differ in a detail not shown here. Identical values can stand only once.

Columns and labels:
Assay in all cases: microbe, parasite or virus in culture
[1] = test system: Bacillus subtilis ATCC 6633; assay type: cell-based; conditions: for Ac2Kaa concentration required to neutralise MIC activity / MIC: ATCC 6633, 48 h; for Molar excess of Ac2Kaa ligand required to antagonise antibacterial activity: [ligand]/[antibiotic], B. subtilis ATCC 6633, 24 h
Protocol: All compounds were dissolved in H2O. Bacillus subtilis ATCC® 6633™ NRS-231 was cultured in MHB at 37 °C for 48 h. A sample of each culture was then diluted 40-fold in fresh MHB and incubated at 37 °C for 18 h. Compounds were added to each row of 96-well NBS plates (NBS, Corning 3641), in duplicate. The tripeptide N,N΄-diacetyl-L-Lys-D-Ala-D-Ala was serially diluted twofold across the compound-containing wells from 6400 to 3 µg mL^−1. To this the resultant mid-log phase cultures were diluted to the final concentration of 5 × 10^5 CFU mL^−1, then added to wells of the compound-containing plates. All the plates were covered and incubated at 37 °C for 24 h.

[2] = test system: Methicillin-resistant S. aureus ATCC 43300
Protocol: (§1) Antimicrobial activity of compounds was tested against a number of bacterial strains by broth microdilution (BMD) assay with MIC determination, including S. aureus (MSSA ATCC® 29213™, MRSA ATCC® 43300™, VISA NARSA NRS1, VISA NARSA NRS4), Streptococcus pneumoniae (MDR ATCC® 700677™) and Enterococcus faecium (MDR VanA ATCC® 51559™). ATCC strains were sourced from the American Type Culture Collection and NRS strains from NARSA (Network on Antimicrobial Resistance in S. aureus) via BEI Resources (www.beiresources.org). All compounds were prepared to 160 µg mL^−1 solution in water from a stock solution of 1 mM concentration.
[…] […] Standards ranged from 64 to 0.03 µg mL^−1 and compounds from 8 to 0.003 µg mL^−1 with final assay volumes of 100 µL per well. Gram-positive bacteria were cultured in Mueller Hinton broth (MHB) (Bactolaboratories, Cat. no. 211443) at 37 °C overnight. A sample of each culture was then diluted 40-fold in fresh MHB and incubated at 37 °C for 2–3 h. […] All the plates were covered and incubated at 37 °C for 24 h. MICs were the lowest concentration showing no visible growth.

[3] = test system: Multi-drug-resistant S. pneumoniae ATCC 700677
Protocol: as §1
(§2) The compounds, along with standard antibiotics were serially diluted twofold across the wells of 96-well non-binding surface (NBS) polystyrene plates (Corning 3641). […] Standards ranged from 64 to 0.03 µg mL^−1 and compounds from 8 to 0.003 µg mL^−1 with final assay volumes of 100 µL per well. Gram-positive bacteria were cultured in Mueller Hinton broth (MHB) (Bactolaboratories, Cat. no. 211443) at 37 °C overnight. A sample of each culture was then diluted 40-fold in fresh MHB and incubated at 37 °C for 2–3 h. […] All the plates were covered and incubated at 37 °C for 24 h. MICs were the lowest concentration showing no visible growth.

[4] = test system: Vancomycin-intermediate S. aureus NRS1
Protocol: as §1, §2

[5] = test system: Vancomycin-resistant (VanA) Enterococcus faecium ATCC 51559
Protocol: as §1, §2

Compound | Ac2Kaa concentration required to neutralise MIC activity [1] [µg/mL] | MIC [1] [µg/mL] | Molar excess of Ac2Kaa ligand required to antagonise antibacterial activity [1] | other results
CCCCCCCCCCC(=O)NCC(=O)N[C@@H](CO)C(=O)N[C@@H](CCCCN)C(=O)N[C@@H](CCCCN)C(=O)N[C@@H](CCCCN)C(=O)N[C@@H](CCCCNC(=O)[C@H]1NC(=O)[C@H]2NC(=O)[C@H](NC(=O)[C@@H]3NC(=O)[C@H](CC(N)=O)NC(=O)[C@H](NC(=O)[C@@H](CC(C)C)NC)[C@H](O)c4ccc(c(Cl)c4)Oc4cc3cc(c4O[C@@H]3O[C@H](CO)[C@@H](O)[C@H](O)[C@H]3O[C@H]3C[C@](C)(N)[C@H](O)[C@H](C)O3)Oc3ccc(cc3Cl)[C@H]2O)c2ccc(O)c(c2)-c2c(O)cc(O)cc21)C(=O)O [Compound 39, nC10CO-GSKKK-K-(Vancomycin)-OH] | 400 | 0.06 (≈ 0.0264 µM) | 30,569 | –
CN[C@H](CC(C)C)C(=O)N[C@H]1C(=O)N[C@@H](CC(N)=O)C(=O)N[C@H]2C(=O)N[C@H]3C(=O)N[C@H](C(=O)N[C@H](C(=O)NCCCC[C@H](NC(=O)[C@H](CCCCN)NC(=O)[C@H](CCCCN)NC(=O)[C@H](CCCCN)NC(=O)[C@H](CCCCNC(=O)c4ccc(Oc5ccccc5)cc4)NC(=O)c4ccc(Oc5ccccc5)cc4)C(=O)O)c4cc(O)cc(O)c4-c4cc3ccc4O)[C@H](O)c3ccc(c(Cl)c3)Oc3cc2cc(c3O[C@@H]2O[C@H](CO)[C@@H](O)[C@H](O)[C@H]2O[C@H]2C[C@](C)(N)[C@H](O)[C@H](C)O2)Oc2ccc(cc2Cl)[C@H]1O [Compound 42, POB2K-KKK-K-(Vancomycin)-OH] | 1600 | ≤ 0.004 | 131,225 | –
CCCCCCCCCCCCC(=O)N[C@@H](CCCCN)C(=O)N[C@@H](CCCCN)C(=O)N[C@@H](CCCCN)C(=O)N[C@@H](CCCCNC(=O)[C@H]1NC(=O)[C@H]2NC(=O)[C@H](NC(=O)[C@@H]3NC(=O)[C@H](CC(N)=O)NC(=O)[C@H](NC(=O)[C@@H](CC(C)C)NC)[C@H](O)c4ccc(c(Cl)c4)Oc4cc3cc(c4O[C@@H]3O[C@H](CO)[C@@H](O)[C@H](O)[C@H]3O[C@H]3C[C@](C)(N)[C@H](O)[C@H](C)O3)Oc3ccc(cc3Cl)[C@H]2O)c2ccc(O)c(c2)-c2c(O)cc(O)cc21)C(=O)O [Compound 38, nC12CO-KKK-K-(Vancomycin)-OH] | – | – | – | MIC MRSA ([2]; ATCC 43300, 24 h): <0.003 µg/mL; MIC MDR S.P. ([3]; ATCC 700677): <0.003 µg/mL; MIC VISA ([4]; Vancomycin-intermediate NRS1): 0.03 µg/mL (≈ 0.0139 µM); MIC VRE ([5]; ATCC 51559): 0.1875 µg/mL (≈ 0.0869 µM)
CN[C@H](CC(C)C)C(=O)N[C@H]1C(=O)N[C@@H](CC(N)=O)C(=O)N[C@H]2C(=O)N[C@H]3C(=O)N[C@H](C(=O)N[C@H](C(=O)NCCCC[C@H](NC(=O)[C@H](CCCCN)NC(=O)[C@H](CCCCN)NC(=O)c4ccc(Oc5ccccc5)cc4)C(=O)O)c4cc(O)cc(O)c4-c4cc3ccc4O)[C@H](O)c3ccc(c(Cl)c3)Oc3cc2cc(c3O[C@@H]2O[C@H](CO)[C@@H](O)[C@H](O)[C@H]2O[C@H]2C[C@](C)(N)[C@H](O)[C@H](C)O2)Oc2ccc(cc2Cl)[C@H]1O [Compound 41, POB-KK-K-(Vancomycin)-OH] | 1.56 | 0.06 (≈ 0.0296 µM) | 104 | –
CN[C@H](CC(C)C)C(=O)N[C@H]1C(=O)N[C@@H](CC(N)=O)C(=O)N[C@H]2C(=O)N[C@H]3C(=O)N[C@H](C(=O)N[C@H](C(=O)NCCCC[C@H](NC(=O)[C@H](CCCCN)NC(=O)[C@H](CCCCN)NC(=O)[C@H](CCCCN)NC(=O)c4ccc(Oc5ccccc5)cc4)C(=O)O)c4cc(O)cc(O)c4-c4cc3ccc4O)[C@H](O)c3ccc(c(Cl)c3)Oc3cc2cc(c3O[C@@H]2O[C@H](CO)[C@@H](O)[C@H](O)[C@H]2O[C@H]2C[C@](C)(N)[C@H](O)[C@H](C)O2)Oc2ccc(cc2Cl)[C@H]1O [Compound 40, POB-KKK-K-(Vancomycin)-OH] | 12.5 | 0.03 (≈ 0.0139 µM) | 916 | –
POB2K-Dap-K-K(Vancomycin)-NHMe [Compound 28] | – | – | – | MIC MRSA ([2]; S. aureus ATCC 43300, NBS plates, MHB, 24 h, substance alone): <0.003 µg/mL and 0.0045 µg/mL; MIC MDR S.P. ([3]; S. pneumoniae ATCC 700677): 0.015 µg/mL and 0.011 µg/mL; MIC VISA ([4]; S. aureus NRS1): 0.125 µg/mL and 0.155 µg/mL; MIC VRE ([5]; E. faecium MDR VanA ATCC 51559, substance alone): 0.75 µg/mL
CNC(=O)[C@H](CCCCNC(=O)[C@H]1NC(=O)[C@H]2NC(=O)[C@H](NC(=O)[C@@H]3NC(=O)[C@H](CC(N)=O)NC(=O)[C@H](NC(=O)[C@@H](CC(C)C)NC)[C@H](O)c4ccc(c(Cl)c4)Oc4cc3cc(c4O[C@@H]3O[C@H](CO)[C@@H](O)[C@H](O)[C@H]3O[C@H]3C[C@](C)(N)[C@H](O)[C@H](C)O3)Oc3ccc(cc3Cl)[C@H]2O)c2ccc(O)c(c2)-c2c(O)cc(O)cc21)NC(=O)[C@H](CCCN)NC(=O)[C@H](CCCCN)NC(=O)[C@H](CCCCNC(=O)c1ccc(Oc2ccccc2)cc1)NC(=O)c1ccc(Oc2ccccc2)cc1 [Compound 32, POB2K-K-Orn-K(Vancomycin)-NHMe] | – | – | – | MIC MRSA ([2]; ATCC 43300, 24 h): <0.003 µg/mL; MIC MDR S.P. ([3]; ATCC 700677): <0.003 µg/mL; MIC VISA ([4]; Vancomycin-intermediate NRS1): 0.0375 µg/mL (≈ 0.0159 µM); MIC VRE ([5]; ATCC 51559): 1 µg/mL (≈ 0.425 µM)
